Assay results taken from US10976312B2, “Compositions and methods for capture of cellular targets of bioactive agents” (Promega Corporation, priority 2012, dated 2021).

What was measured:
Type in all cases: cell-based
NANOLUC-DHFR fusion [1] = molecular target: T1, NANOLUC-DHFR fusion (Homo sapiens, UniProt P00374); assay: Binding affinity to DHFR in live cells using BRET; settings: HEK293 live cells, 1 μM PBI-4890 tracer, 2 h
T1 construct: expressed in transfected cells; host or cells: HEK293
T1 sequence (P00374 1-187): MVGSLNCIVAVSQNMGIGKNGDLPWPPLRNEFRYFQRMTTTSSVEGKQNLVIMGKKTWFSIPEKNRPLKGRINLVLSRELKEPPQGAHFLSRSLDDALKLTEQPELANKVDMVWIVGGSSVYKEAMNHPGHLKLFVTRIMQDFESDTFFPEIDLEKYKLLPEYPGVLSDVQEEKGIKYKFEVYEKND
Method: Binding affinity to DHFR in live cells was tested using BRET. HEK293 cells in wells of a 96-well plate were transfected using PEI with plasmid DNA encoding a NANOLUC-DHFR fusion. The DNA was diluted 1:50 with a promoterless carrier DNA plasmid (PSI) to a final concentration of 80 ng total DNA per well. Twenty-four hours post-transfection, cells were serum starved for additional 24 hours and then treated with serially diluted PBI-4848 or PBI-5015 in the presence of 1 μM PBI-4890 (TOM-methotrexate derivative). After two hours of equilibrium binding, furimazine (a coelenterazine derivative; Promega Corp.) was added to a final concentration of 20 μM, and BRET measured on a Varioskan luminometer.

DHFR = molecular target: T2, DHFR (Homo sapiens, UniProt P00374); assay: Endogenous target pull-down from HEK293 cells, western blot and mass spec (Example 7); settings: 10 uM conjugate, listed as Methotrexate-CA
T2 construct: isolate, e.g., pull-down, endogenous targets from cells; endogenous in cells; host or cells: HEK293
T2 sequence (P00374 1-187): T1 sequence (P00374 1-187)
Method: HEK293 cells were plated into wells of a 6-well plate (2.5×10^5 cells/well). 48 hours post plating, a final concentration of 10 uM of Methotrexate chloroalkane (PBI-5015) was added to 2 wells while control cells were not treated with the drug conjugate. Following equilibrium binding for 2 h, the media was removed, and the cells quickly washed with PBS and lysed in detergent-based lysis buffer for 10 min. Cell lysates were then transferred to an Eppendorf® tube containing 12.5 ul of settled paramagnetic HALOTAG protein beads and incubated with shaking for 15 min. Following binding, the unbound fraction was removed, the HALOTAG paramagnetic beads washed 3×, and the captured targets specifically released from the beads by competition with 150 μM unconjugated methotrexate for 60 mins. The released targets were subjected to mass spec analysis as well as western blot analysis using an anti-DHFR antibody (Sigma).

NANOLUC-DHFR fusion [2] = molecular target: T1, NANOLUC-DHFR fusion; assay: Pull-down of NANOLUC:DHFR from live HEK293 cells onto HALOTAG protein beads; settings: 10 μM conjugate, release with 150 μM methotrexate
Method: The DNA was diluted 1:50 with a promoterless carrier DNA plasmid (PSI) to a final concentration of 80 ng total DNA per well. Twenty-four hours post-transfection, cells were serum starved for additional 24 h and then incubated with 10 μM PBI-4848 or PBI-5015 while control cells were not treated with the conjugated drug. Following equilibration binding of 2 h, the media was removed, and the cells quickly washed with PBS and lysed in detergent-based lysis buffer for 10 min. Cell lysates were then transferred to wells of a 96-well plate containing 0.5 μl settled paramagnetic HALOTAG protein beads and incubated with shaking for 45 min. Following binding, the unbound fraction was removed, the HALOTAG protein paramagnetic beads washed, 150 μM unconjugated methotrexate added, and the captured NANOLUC:DHFR specifically released from the beads by competition with the unconjugated methotrexate for 60 min. The released NANOLUC:DHFR (+PBI5015 or +PBI 4848) and control samples were detected by NANOGLO luciferase detection reagent.

[3] = tested on: HDAC1, HDAC2, HDAC3, HDAC6, HDAC8; assay: Endogenous target pull-down from HEK293 cells, western blot and mass spec (Example 11); settings: 20 uM conjugate
Method: HEK293 cells were plated in 100 mm dishes at 2×10^5 cells/ml. Forty-eight hours post plating, a final concentration of 20 uM SAHA-chloroalkane (PBI-5040) was added to 3 of the dishes (1×10^7 cells/dish), while 3 other dishes were not treated with the conjugated drug (control). Following equilibrium binding for 2 hours, the media was removed, the cells quickly washed with PBS, lysed in a detergent-based lysis buffer for 10 minutes and centrifuged at 3000×g for 1 minute. The cleared lysates were than added to 75 ul of settled paramagnetic HALOTAG beads and incubated with shaking for 15 minutes. Following binding, the unbound fraction was removed, the HALOTAG paramagnetic beads were washed 3× (wash buffer—50 mM HEPES pH7.5, 150 mM NaCl and 0.01% IGEPAL), and the captured targets specifically released from the beads by competition with 400 μM unconjugated SAHA for 60 minutes. The released targets were subjected to mass spec analysis (FIG. 11B) as well as western blot analysis (FIG. 1-A) with anti HDAC1 antibody (ABCAM); anti HDAC2 antibody (ABCAM); anti HDAC6 antibody (Millipore); anti HDAC3 antibody (Thermo Fisher) and anti HDAC8 antibody (Rockland/Promega).

[4] = tested on: intracellular HDAC activity; assay: Intracellular HDAC activity, non-lytic HDAC-Glo I/II assay, HEK293 and K562 cells (Example 10); settings: 2 hours treatment, relative to SAHA
Method: HEK293 cells were plated in a 96-well plate at 1×10^5 cell/ml in DMEM+10% serum, and 24 hours later, the media was replaced with serum free DMEM media. K562 cells were plated in serum free RPMI 1640 media into wells of a 96-well plate at 2×10^5 cells/ml. Cells were treated with serial dilutions of SAHA or PBI-5040 (SAHA-chloroalkane) for 2 hours and then tested for intracellular HDAC activity using the non-lytic HDAC-Glo™ I/II assay (Promega Corporation) according to manufacturer's instructions. […] The ˜2-fold reduction in SAHA potency due to the chloroalkane modification indicates minimal impact of the chloroalkane on cellular permeability or potency.

[5] = tested on: HDAC1, HDAC2, HDAC3, HDAC6, HDAC8; assay: Endogenous target pull-down from K562 cells, western blot (Example 13); settings: 20 uM conjugate
Method: K562 cells were plated in 150 mm dishes at 5×10^7 cells/dish. A final concentration of 20 uM SAHA chloroalkane (PBI-5040) or PBI-5475 (SAHA-biotin) was added to 2 dishes of cells while 2 other dishes of cells were not treated with the conjugated drug (control). Following equilibrium binding of 2 hours, the media was removed, the cells quickly washed with PBS and lysed in detergent-based lysis buffer for 10 minutes and centrifuged at 3000×g for 1 minute. The cleared lysates treated with PBI-5040, as well as the cleared lysates of the control cells, were added to 75 ul of settled paramagnetic HALTOG beads. The cleared lysates of the cells treated with PBI-5475, as well as the cleared lysate of the control cells, were added to 75 ul of settled paramagnetic Streptavidin beads (GE). Following 15 minutes of binding, the unbound fraction was removed, beads were washed 3×, and the captured targets specifically released from the beads by competition with 400 μM unconjugated SAHA for 60 minutes. The released targets were subjected to western blot analysis (FIG. 13) with anti HDAC1 antibody (ABCAM); anti HDAC2 antibody (ABCAM); anti HDAC6 antibody (Millipore); anti HDAC3 antibody (Thermo Fisher) and anti HDAC8 antibody (Rockland/Promega).

[6] = tested on: intracellular HDAC activity; assay: Intracellular HDAC activity, non-lytic HDAC-Glo I/II assay, K562 cells (Example 12); settings: 2 hours treatment
Method: K562 cells were plated in serum free RPMI 1640 media into wells of a 96-well plate at 2×10^5 cells/ml. Cells were then treated with serial dilution of SAHA, PBI-5040 (SAHA-chloroalkane) or PBI 5475 (SAHA-biotin) for 2 hours and then tested for intracellular HDAC activity using the non-lytic HDAC-Glo™ I/II assay (Promega Corporation) according to manufacturer's instructions.

| SMILES | affinity to DHFR (dose-response BRET curves) (NANOLUC-DHFR fusion [1]) | pull-down of endogenous DHFR (DHFR) | pull-down of Nluc:DHFR fusion (NANOLUC-DHFR fusion [2]) | pull-down of endogenous SAHA targets (HDACs) [3] | pull-down of endogenous SAHA targets (HDACs) ([3]; listed as SAHA-CA) | reduction in SAHA potency due to the chloroalkane modification [4] | pull-down of endogenous SAHA targets (HDACs) ([5]; listed as SAHA-CA) | pull-down of endogenous SAHA targets (HDACs) ([5]; listed as SAHA-chloroalkane) | reduction in potency relative to SAHA [6] |
| --- | --- | --- | --- | --- | --- | --- | --- | --- | --- |
| CN(Cc1cnc2nc(N)nc(N)c2n1)c1ccc(C(=O)NC(CCC(=O)NCCOCCOCCCCCCCl)C(=O)O)cc1 (stereo not shown) [PBI-4848] | higher affinity to DHFR |  |  |  |  |  |  |  |  |
| CN(Cc1cnc2nc(N)nc(N)c2n1)c1ccc(C(=O)NC(CCC(=O)NCCCCCNC(=O)OCCOCCOCCOC(=O)NCCOCCOCCCCCCCl)C(=O)O)cc1 (stereo not shown) [PBI-5015] | lower affinity to DHFR | specific pull down of DHFR | efficiently pulled down the Nluc:DHFR fusion |  |  |  |  |  |  |
| O=C(CCCCCCC(=O)Nc1ccc(CNC(=O)OCCOCCOCCOC(=O)NCCOCCOCCCCCCCl)cc1)NO [PBI-5040] |  |  |  | all known targets of SAHA, including low affinity target (HDAC8) and low abundance target (HDAC3), can be specifically pull down | specific pull down of all known targets | ~2 fold | specific pull down of all known targets of SAHA | all known targets of SAHA, including a low affinity target (HDAC8) and a low abundance target (HDAC3), were specifically pulled down | ~2 fold |
